Assay results as given in patent US4879295A, “N-tetrazolyl thiazolecarboxyamide derivatives and their use” (Sawai Pharmaceutical Co., Ltd., priority 1986, dated 1989).

Experiments:
[1] = tested on: passive cutaneous anaphylaxis (PCA); assay: Anti-passive cutaneous anaphylaxis (PCA) activity in rats, 48-hours PCA (TEST EXAMPLE 1); type: in vivo, rat (Wistar strain male); conditions: Rattus norvegicus
Description: Anti-passive cutaneous anaphylaxis (PCA) activity in rats
(§1) Wistar strain male rats (6 weeks old) were purchased from Shizuoka Experimental Animal Agricultural Cooperative (Japan), habituated to a breeding environment for 1 week before using for the experiment.
(2) Preparation of antiserum
Preparation of antiserum was carried out according to the method described in J. Immunol. 106, 1002-1011 (1971).
(§2) Thus, Ascaris suum extract was dinitrophenylated (DNP-As) and infused subcutaneously together with dead Bordetella pertussis at four sites on the foot-pad. After 5 days, the rats were boostered with DNP-As (1 mg) at the dosal muscle. After 3 days, bloods samples were collected and serum was separated which was used as anti DNP-As antiserum. The titer of the antiserum was measured by rats 48-hours PCA and found to be 1:200.
Rats were sensitized with 35 times dilution of anti DNP-As antiserum administered at two sites in the pre-clipped right dosal skin. After 48 hours, DNP-As (500 μg in 0.5% Evans blue-physiological saline (1 ml) was administered into caudal vein to elicit the reaction. Then, 30 minutes later, the animals were decapitated, the dosal skin was peeled, two sensitized areas as well as one control area were cut off and analyzed for Evans blue exudation which was used as an indicative of the reaction according to the method disclosed in Microbiol. Immunol. 22, 89-101 (1978). Thus, cut skins were treated with 1N-NaOH (1 ml) and incubated at 37° C. for 16 hours to dissolve the skin tissue. A mixed solution (9 ml) of 0.6N-phosphoric acid-acetone (5:13) was added and the mixture was centrifuged (300 r.p.m) for 15 minutes. The supernatant was assayed for absorption at 620 nm and the exudation of Evans blue was determined. Test compounds (I) were administered either into caudal vein 5 minutes before the elicitation of the reaction, or perorally as a suspension in 0.5% 1 hour before the elicitation.

[2] = tested on: passive cutaneous anaphylaxis (PCA); assay: Anti-passive cutaneous anaphylaxis (PCA) activity in rats, P.O. only (TEST EXAMPLE 2); type: in vivo, rat (Wistar strain male); conditions: 1 hour before elicitation
Description: as §1, §2
Rats were sensitized with 35 times dilution of anti DNP-As antiserum administered at two sites in the pre-clipped right dosal skin. […] The supernatant was assayed for absorption at 620 nm and the exudation of Evans blue was determined. […]

[3] = iv, I.V. (caudal vein), 5 minutes before elicitation
[4] = po, P.O., 1 hour before elicitation

| SMILES | inhibition in vivo at 2 mg/kg [1, 3] [%] | also measured |
| --- | --- | --- |
| O=C(Nc1nnn[nH]1)c1csc(-c2cc(Cl)ccc2O)n1 [Compound I-19, 2-(5-chloro-2-hydroxyphenyl)-N-(1H-tetrazole-5-yl)-4-thiazolecarboxamide] | 97 |  |
| COc1ccc(-c2nc(C(=O)Nc3nnn[nH]3)cs2)cc1 [Compound I-4] | 98 |  |
| O=C(Nc1nnn[nH]1)c1csc(-c2ccccc2O)n1 [Compound I-1] | 99 | inhibition in vivo at 0.5 mg/kg ([1]; iv, I.V. (caudal vein), 0.5 mg/kg, 5 minutes before elicitation): 67%; inhibition in vivo at 1.5 mg/kg ([1]; iv, I.V. (caudal vein), 1.5 mg/kg, 5 minutes before elicitation): 98% |
| Cc1ccc(-c2nc(C(=O)Nc3nnn[nH]3)c(C)s2)cc1 [Compound I-27, 2-(4-methylphenyl)-5-methyl-N-(1H-tetrazole-5-yl)-4-thiazolecarboxamide] |  | inhibition in vivo at 25 mg/kg ([1]; po, P.O., 25 mg/kg, 1 hour before elicitation): 91% |
| COc1ccc(/C=C/C(=O)Nc2ccccc2C(=O)O)cc1OC [Tranilast, tranilast, reference compound] |  | inhibition in vivo at 50 mg/kg [1, 4]: 0%; Inhibition ([2]; 50 mg/kg): 0% |
| O=C(Nc1nnn[nH]1)c1csc(-c2cc([N+](=O)[O-])ccc2O)n1 [Compound I-21, 2-(2-hydroxy-5-nitrophenyl)-N-(1H-tetrazole-5-yl)-4-thiazolecarboxamide] | 98 |  |
| COc1cccc(-c2nc(C(=O)Nc3nnn[nH]3)cs2)c1 [Compound I-3, 2-(3-methoxyphenyl)-N-(1H-tetrazole-5-yl)-4-thiazolecarboxamide] | 99 | inhibition in vivo at 30 mg/kg [1, 4]: 77% |
| Cc1ccc(-c2nc(C(=O)Nc3nnn[nH]3)c(C)s2)s1 [Compound I-42, 2-(5-Methyl-2-thienyl)-5-methyl-N-(1H-tetrazole-5-yl)-4-thiazolecarboxamide] |  | Inhibition ([2]; 25 mg/kg): 73% |
| COc1ccccc1-c1nc(C(=O)Nc2nnn[nH]2)cs1 [Compound I-2] | 99 | inhibition in vivo at 50 mg/kg [1, 4]: 60% |
| COc1ccc(O)c(-c2nc(C(=O)Nc3nnn[nH]3)cs2)c1 [Compound I-20, 2-(2-hydroxy-5-methoxyphenyl)-N-(1H-tetrazole-5-yl)-4-thiazolecarboxamide] | 93 |  |
| Cc1ccc(O)c(-c2nc(C(=O)Nc3nnn[nH]3)cs2)c1 [Compound I-22, 2-(2-hydroxy-5-methylphenyl)-N-(1H-tetrazole-5-yl)-4-thiazolecarboxamide] | 81 |  |
| O=C(O)c1cc(=O)c2c(OCC(O)COc3cccc4oc(C(=O)O)cc(=O)c34)cccc2o1 [DSCG, disodium cromoglicate, reference compound] |  | inhibition in vivo at 5 mg/kg ([1]; iv, I.V. (caudal vein), 5 mg/kg, 5 minutes before elicitation): 92% |
| O=C(Nc1nnn[nH]1)c1csc(-c2cccc(C(F)(F)F)c2)n1 [Compound I-17, 2-(3-trifluoromethylphenyl)-N-(1H-tetrazole-5-yl)-4-thiazolecarboxamide] | 98 |  |
| Cc1ccc(-c2nc(C(=O)Nc3nnn[nH]3)cs2)cc1 [Compound I-7] |  | inhibition in vivo at 30 mg/kg [1, 4]: 76% |
| O=C(Nc1nnn[nH]1)c1csc(-c2ccccc2OCc2ccccc2)n1 [Compound I-23, 2-(2-benzyloxyphenyl)-N-(1H-tetrazole-5-yl)-4-thiazolecarboxamide] | 98 |  |
